Columns and labels:
[1] = design: method as in Soares et al., 2016; Toyn et al., 2016; conditions: ref Soares et al., 2016, Toyn et al.; cited from earlier work
[2] = tested on: Notch proteolysis by γ-secretase; test: Notch assay (Myc-tagged Notch NΔE in H4-APP751 neuroglioma cells); assay type: cell-based; conditions: H4-APP751 neuroglioma cells transfected with Myc-tagged Notch (NΔE) construct; Fig. 3
Procedure: Notch assays were carried out as described previously ([Wagner et al., 2014]).

SMILES	hepatic safety in repeated oral dosing studies in humans [1]	Notch proteolysis [2]
CNc1nc(Nc2ccc(-n3cnc(C)n3)c(OC)c2)nc2c1CC[C@H]2c1ccc(F)cc1 [BMS-932481]	transient elevations in plasma concentrations of enzymes associated with hepatic toxicity	–
C[C@H](NC(=O)Cc1cc(F)cc(F)c1)C(=O)N[C@H](C(=O)OC(C)(C)C)c1ccccc1 [N-[N-(3,5-difluorophenacetyl)-L-alanyl]-S-phenylglycine t-butyl ester, reference compound]	–	potently inhibits Notch proteolysis
